Source: patent US20230137849A1, “USE OF A COMPOUND OF THE DIURETICS CLASS FOR TREATING CANCER” (AZELEAD, priority 2017, published 2023)
Like-named read-outs stand apart in the source and are kept apart here.

Legend:
[1] = test system: hematopoietic stem cells CD41:GFP accumulated in the CHT; type: in vivo; conditions: for reduction of the number of HSCs accumulated in CHT: 10 μM (FIG. 3; b188 prints 10 μl), 24 h, vs reference embryos treated with DMSO; for efficiency on number of cells migrated to CHT: 24 hours, FIG. 6
Source text: A method for determining whether a molecule is capable of treating cancer in the pre-metastatic state has been described in international application WO 2011/007259. This method consists in isolating molecules capable of inhibiting the emergence of hematopoietic stem cells from the floor of the aorta without cell division, but by endothelial-to-hematopoietic transition. This emergence involves the loss of cell polarity of emerging cells, the loss of cellular junctions with these neighboring cells and the acquisition of migratory properties. This model is used because it mimics each stage of the epithelial-mesenchymal transition, the first stage of cancer metastasis. The endothelial-to-hematopoietic transition takes place in a region of the embryo called Aorta-Gonad-Mesonephros (AGM).
(§1) The colonization of hematopoietic tissues by hematopoietic stem cells mimics the appearance and/or progression of a metastatic cancerous tumor since it involves intravasation, extravasation, or the migration of HSCs following a gradient of SDF-1. The first colonized tissue is caudal hematopoietic tissue (CHT).
In order to evaluate the inhibition of the endothelial-to-hematopoietic transition, transgenic CD41:GFP (green fluorescent protein) embryos are used. HSCs express GFP under the control of the CD41 promoter, which allows them to be monitored in vivo under a fluorescence microscope. The read-out is the number of hematopoietic stem cells CD41:GFP accumulated in the AGM (mimicking the initiation of the metastatic process) and/or in the CHT of the zebrafish embryo (mimicking the progression of the metastatic process). The accumulation of CD41:GFP cells in CHT implies that each cell has made an endothelial-to-hematopoietic transition, intravasation, extravasation at the CHT level, has settled in a stromal niche and has proliferated.
The Tg transgenic zebrafish line (CD41:GFP) is maintained in accordance with the protocols described by the Ethical Committee for Animal Experimentation. The fish are kept at a temperature of 28° C. and their development stage is determined as before. The molecules are tested on zebrafish embryos at the 25 hpf stage. The embryos are decorticated and transferred to a 96-well plate (1 embryo/well) containing the test compounds in a final volume of 100 μl of the embryonic growth medium (60 μg salt for 1 ml H2O). […] The treated embryos are incubated for 24 hours in an incubator at 28° C.
The embryos are imaged with a plate reader after being anesthetized with 0.16% tricaine (ethyl-3-aminobenzoate). A quantification of the number of fluorescent cells (CD41:GFP) accumulated in the CHT is carried out.
Althiazide was tested on the zebrafish embryo according to the method previously described in the international application WO 2011/007259. This method consists in isolating molecules capable of inhibiting the emergence of hematopoietic stem cells from the floor of the aorta without cell division, but by endothelial-to-hematopoietic transition. This emergence involves the loss of cell polarity of emerging cells, the loss of cellular junctions with these neighboring cells and the acquisition of migratory properties. This model is used, in the context of the invention, because it mimics each of the stages of the epithelial-to-mesenchymal transition, the first stage of the cancerous metastasis. The endothelial-to-hematopoietic transition takes place in a region of the embryo called Aorto-Gonado-Mesonephros (AGM).
as §1, with “metastatic” for “metastatic cancerous”, “SDF1.” for “SDF-1.”, “(CHT). This physiological process is considered, in the context of the invention, as representative of the appearance and/or progression of a metastatic tumor. […]” for “(CHT).”

zebrafish embryo = conditions: in vivo, 24 h, 1 mM
Experimental: The toxicity study is carried out over 72 hours. The embryos are treated at 25 hpf with the doses used for the test of chemical compounds of each of the compounds, in a 96-well plate, in a final volume of 100 μl of the embryonic growth medium. The embryos are incubated 72 h at 28° C. The medium is changed every 24 hours. The survival rate of embryos and the appearance of developmental defects are analyzed daily.
At the same time, we analyzed the toxicity of althiazide after balancing with a solution containing althiazide at concentrations of 1 μM, 10 μM, 100 μM, 1000 μM for 24, 48 and 72 hours. The toxicity study was based on analysis of the percentage viability of the embryos after treatment. At concentrations of 1 μM, 10 μM and 100 μM, althiazide causes no toxicity even after 72 hours of treatment. A 50% toxicity is observed after treatment for 24 hours, the althiazide at the concentration of 1 mM.

4T1 cells = assay: 4T1 cell migration test (scratch test); type: cell-based, mouse; conditions: lowest concentration 10 nM, t=24 h, FIG. 8
Experimental: The cell migration assays on the 4T1 cell line are carried out in vitro in 12-well plates on the 4T1 cell line. The cells are maintained in DMEM culture medium supplemented with 10% calf serum (FCS) and incubated at 37° C. and 5% CO2. The cell monolayer is injured with a 10 μ pipette tip. The medium is aspirated and replaced by a medium containing the compounds to be tested at the concentrations described. The wells are imaged using a microscope and the injured surface is repaired at the indicated times to highlight the cell anti-migratory power of the tested chemical compounds. The average of the measurements obtained is compared with the control wells: (average value of the compounds treated/average value of the controls)*100=% of the average value.
In order to validate the anti-migratory potential of althiazide, we carry out a “scratch test” on 4T1 cells in culture according to the cell migration test protocol on the 4T1 cell line described in the Materials and Methods section. This test is used to evaluate the migratory power of a chemical compound on cells in culture. […]
The area of the injured area is measured for each well and the percentage of migration is calculated under each condition.

## C=CCSCC1Nc2cc(Cl)c(S(N)(=O)=O)cc2S(=O)(=O)N1 (racemic) [althiazide]
[1]
  reduction of the number of HSCs accumulated in CHT: 41%
[1]; listed as Althiazide
  reduction of the number of HSCs accumulated in CHT: most effective chemical compound
[1]; 10 μM both, control DMSO 1%, FIG. 5
  anti-migratory effect (HSCs accumulated in CHT) compared with dasatinib: as effective as dasatinib
[1]; 10 μM, larger number of embryos (n=64 and n=74), FIG. 4
  decrease in the number of cells that colonized/migrated in CHT, second test: 36.2%
[1]; althiazide 1 μM
  efficiency on number of cells migrated to CHT: no effect
[1]; althiazide 10 μM
  efficiency on number of cells migrated to CHT: 50%
[1]; althiazide 100 μM
  efficiency on number of cells migrated to CHT: 100%
[1]; thiazide compounds test, 10 μM or 25 μM, FIG. 9
  invasion of CHT by CD41:GFP cells / number of cells having colonized CHT, in words: most effective chemical compound
[1]; thiazide compounds test, FIG. 9, concentration not stated (tested at 10 and 25 μM)
  reduction of migration (cells having colonized CHT): 30%
[1]; zebrafish, in vivo
  toxic effects in the dose effect test: appearance of toxic effects
Zebrafish embryo
  toxicity (percentage viability of the embryos): 50%
4T1 cells
  decrease in cell migration: 40%
